Experimental data reported in patent US10563171B2, “Method for inducing differentiation of pluripotent stem cells into germ cells” (Kyoto University, priority 2015, dated 2020).

Tests used:
BTAG 585B1-868 hiPSCs = assay: Induction of iMeLCs from hiPSCs having induction capacity into BTAG positive cells (FACS of BTAG(+) cells); type: cell-based, human
Experimental: (§1) Initial mesoderm-like cells (iMeLCs) were induced by seeding hiPSCs maintained in StemFit™ in a 12 well plate coated with human plasma fibronectin (Millipore, FC010) at 1.0-2.0×10^5 cells per well in GK15 medium [GMEM containing 15% KSR, 0.1 mM NEAA, 2 mM L-glutamine, 1 mM sodium pyruvate and 0.1 mM 2-mercaptoethanol (Life Technologies)] containing 50 ng/ml activin A, 3 μM CHIR99021 and 10 μM ROCK inhibitor (Y-27632; Wako Pure Chemical Industries). The hiPSCs were induced by seeding in a low-cell-binding V-bottom 96 wellplate (Thermo, 81100574) at 3.0×10^3 cells per well in GK15 added with 1000 U/ml LlF (Millipore, #LIF1005), 200 ng/ml BMP 4,100 ng/ml SCF (R&D Systems, 455-MC), 50 ng/ml EGF (R&D Systems, 236-EG), and 10 μM ROCK inhibitor. For investigation of conditions and induction of iMeLCs or hPGCLC, PD173074 (StemGent, #04-0008) or LDN193189 (StemGent, #04-0074) was respectively added. Other than the above, WNT3A (R&D Systems, 5036-WN) was used instead of CHIR99021, and BMP2 (R&D Systems, 355-BM), BMP7 (R&D Systems, 354-BP), or BMP8A (R&D Systems, 1073-BP) was used instead of BMP4.
(§2) Floating aggregates containing hPGCLCs were separated by treating with 0.05% Trypsin-EDTA/PBS at 37° C. for 10 min. After washing with PBS containing FBS and 0.1% BSA, the cell suspension was filtered by a cell strainer (BD Biosciences) and centrifuged to remove cell aggregates. The collected cells were suspended in FACS buffer (0.1% BSA in PBS) and analyzed by a flow cytometer (ARIA III; BD Biosciences). For the analysis of hPGCLCs or hiPSCs, the separated cells were stained with APC-conjugated anti-human CD326 (EpCAM), BV421-conjugated anti-human/mouse CD49f, PE-conjugated anti-TRA-1-60, or FITC-conjugated anti-SSEA-4. Furthermore, intracellular staining using Alexa fluor 647-conjugated anti-OCT3/4, Alexa Fluor 647-conjugated anti-NANOG or V450-conjugated anti-SOX2 was performed using BD cytofix/Cytoferm Fixation/Permeabilization kit (BD, 554714) and according to the Manufacturer's instructions.

iMeLCs = assay: Induction of BTAG positive cells (hPGCLCs) from iMeLCs in floating aggregates; type: cell-based, human; conditions: for role in induction of BTAG positive cells from iMeLCs: combination of BMP4, LIF, SCF and EGF changed, FIG. 11A-D
Experimental: as §1, §2

CCN(CC)CCCCNc1ncc2cc(-c3cc(OC)cc(OC)c3)c(NC(=O)NC(C)(C)C)nc2n1 [PD173074, reference compound]
number of BTAG-positive cells per cell aggregate (BTAG 585B1-868 hiPSCs; FGFR signaling inhibited during induction of iMeLCs, FIG. 10G, 10H): increased

c1ccc2c(-c3cnn4cc(-c5ccc(N6CCNCC6)cc5)cnc34)ccnc2c1 [LDN193189, reference compound]
effect of BMP4 on BTAG positive cell induction in presence of ALK2/3 inhibitor (iMeLCs; FIG. 11B): blocked

bFGF: basic fibroblast growth factor
effect of signaling on iMeLCs induction (BTAG 585B1-868 hiPSCs; added during induction of iMeLC, FIG. 10D, 10E): acts negatively

EGF: epithelial cell growth factor
role in induction of BTAG positive cells from iMeLCs (iMeLCs): maintaining rather than inducing

SCF: stem cell factor
role in induction of BTAG positive cells from iMeLCs (iMeLCs): maintaining rather than inducing

LIF: leukemia inhibitory factor
role in induction of BTAG positive cells from iMeLCs (iMeLCs): maintaining rather than inducing

Cc1c[nH]c(-c2cnc(NCCNc3ccc(C#N)cn3)nc2-c2ccc(Cl)cc2Cl)n1 [CHIR, 6-[2-[4-(2,4-Dichlorophenyl)-5-(4-methyl-1H-imidazol-2-yl)pyrimidin-2-ylamino]ethylamino]pyridine-3-carbonitrile, reference compound]
concentration essential for the induction of iMeLCs having induction capacity into BTAG positive cells (BTAG 585B1-868 hiPSCs; concentration changed during induction of iMeLC from hiPSCs, FIG. 10C): 3 to 5 µM
